Read-outs that look alike come from different tables or passages of the source.
Columns and labels:
[1] = system: NSCL (non‐small‐cell lung cancer) subpanel; assay: NCI-60 one-dose screen, NSCL subpanel; type: cell-based, human; conditions: 10 µM, 48 h
Procedure: (§1) To explore the potential antiproliferative properties of the newly synthesized derivatives, they were submitted to the National Cancer Institute's (NCI) Developmental Therapeutics Program (DTP) for screening at 10 μM in a panel of approximately 60 human cancer cell lines from different cancer types. The results are reported as the growth percentage (GP), which is the growth of the treated cells with each compound for 48 h compared to the untreated controls (Figure 2). […] The initial screening results are summarized in Figure 2, and the mean GP values of each subpanel are depicted in Figure 3. The full reports are compiled in the Supplementary Section.
(§2) All the reported selenoesters (1–6) were submitted to the DTP of NCI. First, they were screened at a single dose (10^−5 M) against a panel of 60 cancer cell lines derived from different tumor types following the methodology available (https://dtp.cancer.gov/discovery_development/nci-60/methodology.htm). As all the compounds satisfied the threshold inhibition criteria established, they were further assessed at five concentrations (0.01, 0.1, 1, 10, and 100 µM) against the same cell panel to obtain their corresponding dose–response curves and three antitumor parameters (GI50, TGI, and LC50) by regression. GraphPad Prism 7.0 Software was used to represent the corresponding graphs.

[2] = system: HCC‐2998‐resistant colon cancer cells; assay: NCI-60 one-dose screen, HCC-2998; type: cell-based, human; conditions: 10 µM, 48 h
Procedure: as §1, §2

[3] = system: CNS subpanel; assay: NCI-60 one-dose screen, CNS subpanel; type: cell-based, human; conditions: 10 µM, 48 h
Procedure: as §1, §2

[4] = system: Breast subpanel; assay: NCI-60 five-dose assay, breast subpanel; type: cell-based; conditions: Homo sapiens, 48 h; for GI50: read-out: Mean GI50 Breast; for LC50: read-out: Mean LC50 Breast
Procedure: (§3) All the compounds were selected for further testing since they fulfilled the set NCI one‐dose screening parameters for threshold inhibition. They were tested at five different concentrations (0.01, 0.1, 1, 10, and 100 μM) for 48 h against the same cell line panel and the dose–response curves along with three response parameters (50% growth inhibitory concentration [GI50], the 50% lethal concentration [LC50], and the total growth inhibition [TGI]) were calculated for every cancer cell line. The full reported data and corresponding graphs are compiled in Supporting Information S1. Average values of GI50, TGI, and LC50 values of all the reported selenoesters in all the subpanels are represented in Figure 4.
as §2

[5] = system: CNS subpanel; assay: NCI-60 five-dose assay, CNS subpanel; type: cell-based; conditions: Homo sapiens, 48 h; for GI50: read-out: Mean GI50 CNS; for LC50: read-out: Mean LC50 CNS
Procedure: as §3, §2

[6] = system: HaCaT cells; assay: MTS cell viability assay in nonmalignant HaCaT cells; type: cell-based, human; conditions: 48 h, mean ± SD
Procedure: (MTS) assay as previously described. Thus, the selenoesters were tested at seven different concentrations (1, 2.5, 5, 10, 25, 50, and 100 µM) during 48 h to determine their corresponding IC50 values.
The effect of each compound on the cell viability of HaCaT cells was tested using the MTS assay. The compounds (1–6) were dissolved in DMSO at a concentration of 10^−2 M, and serial dilutions were prepared. Briefly, the cells were seeded in a 96‐well plate at a density of 1 × 10^4 cells per well. After 24 h of incubation, the cells were treated with either DMSO or seven different concentrations of each selenoester (1, 2.5, 5, 10, 25, 50, and 100 µM) for 48 h in triplicate. At the end of the treatment duration, the media were removed and fresh media were added containing 20 μL of MTS (Promega, USA) per well. After 1 h incubation, the absorbances were read at a wavelength of 490 nm in a 96‐well multiscanner, and the ratio of viable cells was calculated. Data were obtained from at least three independent experiments performed in triplicate. The IC50 values were calculated using OriginPro 8.5.1 Software for nonlinear curve fitting, and Graphpad Prism 7.0 Software was used to represent the corresponding graphs.

[7] = molecular target: T1, hCA I (Homo sapiens, UniProt P00915); assay: hCA I inhibition, stopped-flow CO2 hydration assay; type: biochemical; conditions: stopped flow technique, mean from three assays
T1 construct: made in house
Procedure: (§4) An Applied Photophysics stopped‐flow instrument was used to assay the CA‐catalyzed CO2 hydration activity [52]. […] The uncatalyzed rates were determined in the same manner and subtracted from the total observed rates. Stock solutions of the inhibitor (0.1 mM) were prepared in distilled–deionized water, and dilutions up to 0.01 nM were done thereafter with the assay buffer. Inhibitor and enzyme solutions were preincubated together for 15 min at room temperature before the assay, to allow for the formation of the E–I complex. The inhibition constants were obtained by Nonlinear least‐squares methods using PRISM 3 and the Cheng‐Prusoff equation as reported earlier and represent the mean from at least three different determinations. All CA isoforms were recombinant proteins obtained in‐house, as reported earlier [54, 55, 56].

[8] = system: NSCL (non‐small‐cell lung cancer) subpanel; assay: NCI-60 five-dose assay, NSCL subpanel; type: cell-based; conditions: Homo sapiens, 48 h; for GI50: read-out: Mean GI50 NSCL; for LC50 (50% lethal concentration): read-out: Mean LC50 NSCL
Procedure: as §3, §2

[9] = system: Renal subpanel; assay: NCI-60 five-dose assay, renal subpanel; type: cell-based; conditions: Homo sapiens, 48 h; for GI50: read-out: Mean GI50 Renal; for LC50: read-out: Mean LC50 Renal
Procedure: as §3, §2

[10] = system: L. major promastigotes; assay: Leishmanicidal activity against promastigotes (MTT), L. major; type: cell-based, Leishmania major
Procedure: The synthesized compounds were tested for their antileishmanial activity against promastigotes of L. major and L. infantum at four concentrations (1, 10, 50, and 100 µM) for 48 h using the 3‐(4,5‐dimethylthiazol‐2‐yl)‐2,5‐diphenyltetrazolium bromide (MTT) assay. In this evaluation, the activity was expressed in IC50 (concentration inhibiting the parasite growth by 50%). […] The CC50 was defined as the concentration of selenoesters that led to a reduction in the viability of the macrophages, such that only 50% of the cells survived when compared to the control group. This cell line, derived from the blood of a human with acute monocytic leukemia, was chosen as it has been widely reported that it resembles tissue macrophages to various extents as well as supports the infection by numerous Leishmania promastigotes. The selectivity indexes (SIs) were calculated as the ratio between toxicity on macrophages (THP‐1 cells)/antileishmanial activity. The data for standard control drugs (miltefosine and paromomycin) are included for comparison purposes.
The promastigotes of L. major (clone VI, MHOM/IL/80/Friendlin) and L. infantum (BCN‐150) were grown at 26°C under continuous shaking in M199 1× medium (Sigma, USA). This media was supplemented with 10% of heat‐inactivated fetal bovine serum (FBS) (Gibco, USA), 0.0005% (w/v) hemin, 0.1 mM adenine, 25 mM HEPES (pH 7.2), 0.0001% (w/v) biotin, and 100 UI/mL penicillin and […] streptomycin (Gibco, USA).
The antileishmanial activity of the reported selenoesters was determined using the MTT assay as previously described during the logarithmic growth phase of the tested promastigotes of L. major and L. infantum. Briefly, the Leishmania parasites were seeded into 96‐well flat‐bottom plates (3 × 10^5 parasites/100 µL) and treated with four different concentrations ranging between 1 and 100 µM of each selenoester at 26°C for 48 h. Afterwards, 20 µL of MTT (5 mg/mL in PBS) was added to each well and incubated for 4 h under the same conditions. Then, 80 µL/well of DMSO was added to dissolve the resultant formazan crystals. The absorbances were determined on a Multiskan EX photometric plate reader for microplates at 540 nm. Three independent experiments performed in triplicate were carried out for each compound, and OriginPro 8.5.1 Software was used to calculate the IC50 values by fitting the data to a dose–inhibition sigmoid curve.

[11] = system: Renal subpanel; assay: NCI-60 one-dose screen, renal subpanel; type: cell-based, human; conditions: 10 µM, 48 h
Procedure: as §1, §2

[12] = molecular target: T2, hCA IX (Homo sapiens, UniProt Q16790); assay: biochemical; conditions: stopped flow technique, mean from three assays
T2 construct: made in house
Procedure: as §4

[13] = Leishmania major, 48 h, mean ± SD, read-out: L. major IC50
[14] = 48 h, mean ± SD, read-out: L. major IC50
[15] = read-out: L. major IC50, 48 h, mean ± SD

T1 sequence (P00915 whole entry): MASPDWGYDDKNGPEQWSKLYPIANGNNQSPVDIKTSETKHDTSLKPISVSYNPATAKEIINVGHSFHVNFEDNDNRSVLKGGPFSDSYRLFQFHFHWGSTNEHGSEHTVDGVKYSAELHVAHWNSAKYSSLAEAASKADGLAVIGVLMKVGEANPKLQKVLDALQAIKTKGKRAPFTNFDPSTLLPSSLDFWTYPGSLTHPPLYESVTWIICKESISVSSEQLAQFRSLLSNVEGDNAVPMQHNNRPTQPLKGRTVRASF

SMILES | average growth cell value, NSCL [1] [%] | behaviour in HCC‐2998 [2] | average growth cell value, CNS [3] [%] | GI50 [4] [µM] | LC50 [4] [µM] | GI50 [5] [µM] | LC50 [5] [µM] | IC50 ([6]; Homo sapiens, HaCaT) [µM] | Ki [7] [µM] | GI50 [8] [µM] | LC50 (50% lethal concentration) [8] [µM] | GI50 [9] [µM] | LC50 [9] [µM] | IC50 [10, 13] [µM] | average growth cell value, Renal [11] [%] | Ki [12] [µM] | IC50 [6] [µM] | IC50 [10, 14] [µM] | IC50 [10, 15] [µM]
N#Cc1ccc(NC(=O)C[Se]C(=O)c2ccccc2)cc1C(F)(F)F [Compound 1, Se‐(2‐((4‐cyano‐3‐(trifluoromethyl)phenyl)amino)‐2‐oxoethyl)benzoselenoate] | -96.68 | susceptible | -94.57 | 1.61 | 8.02 | 1.37 | 5.64 | 11.8 ± 1.89 | > 100 | 1.54 | 5.61 | 1.57 | 6.11 | 26.6 ± 1.81 | -95.41 | 57.2 |  |  | 
O=C(C[Se]C(=O)c1ccco1)Nc1ccc([N+](=O)[O-])c(C(F)(F)F)c1 [Compound 5, Se‐(2‐((4‐nitro‐3‐(trifluoromethyl)phenyl)amino)‐2‐oxoethyl)furan‐2‐carboselenoate] | -42.46 | susceptible | -59.61 | 2.01 |  | 2.04 |  |  | > 100 | 1.9 |  | 2.2 |  | 18.3 ± 5.9 | -39.51 | 21.1 |  |  | 
O=C(C[Se]C(=O)c1ccccc1)Nc1cccc(OC(F)(F)F)c1 [Compound 3, Se‐(2‐oxo‐2‐((3‐(trifluoromethoxy)phenyl)amino)ethyl)benzoselenoate] | -57.44 |  | -78.56 | 2.62 | 22.6 | 2.07 | 9 | ~64 | > 100 | 2.3 | 13.2 | 2.33 | 15.4 | 6 to 10 | -61.17 | 80.2 | 63.7 ± 4.32 | 9.67 ± 0.78 | < 10
O=C(C[Se]C(=O)c1ccco1)Nc1cccc(OC(F)(F)F)c1 [Compound 6, Se‐(2‐oxo‐2‐((3‐(trifluoromethoxy)phenyl)amino)ethyl)furan‐2‐carboselenoate] | -12.41 |  | -34.28 | 3.08 |  | 3.08 |  |  | > 100 | 3.64 |  | 5.62 |  | 6 to 10 | -17.86 | 35.9 |  | 10.1 ± 1.27 | < 10
O=C(C[Se]C(=O)c1ccccc1)Nc1ccc([N+](=O)[O-])c(C(F)(F)F)c1 [Compound 2, Se‐(2‐((4‐nitro‐3‐(trifluoromethyl)phenyl)amino)‐2‐oxoethyl)benzoselenoate] | -96.34 | susceptible | -94.42 | 1.48 | 7.68 | 1.17 | 5.17 | 9.49 ± 0.42 | > 100 | 1.41 | 5.36 | 1.38 | 5.2 | 27.1 ± 3.35 | -96.22 | 76.3 |  |  | 
